Source: ChEMBL document CHEMBL5034023, “Development of Multifunctional and Orally Active Cyclic Peptide Agonists of Opioid/Neuropeptide FF Receptors that Produce Potent, Long-Lasting, and Peripherally Restricted Antinociception with Diminished Side Effects” (J Med Chem, 2021)
Activity calls are given as the source filed them. The rule behind the calls is not given here. Bridge positions count the residues as written; N and C are the ends. Square brackets hold non-standard residues; d marks the D form. Peptide text beside a SMILES is read from it. NMeF = CN[C@@H](Cc1ccccc1)C(=O)O; dDap = NC[C@@H](N)C(=O)O

Columns and labels:
[1] = test system: Mus musculus; assay: Antinociceptive activity against Kunming mouse model of thermal-induced nociception assessed as maximum possible effect at 90.1 nmol/kg, po measured after 60 min by tail flick test relative to control; assay type: functional; details: 1 h
[2] = target: T1, Delta-type opioid receptor (Homo sapiens, UniProt P41143); assay: (§1) Agonist activity at DOR (unknown origin) expressed in HEK293-A cells assessed as inhibition of forskolin-induced cAMP accumulation preincubated for 30 mins in presence of 3-isobutyl-1-methylxanthine followed by forskolin and compound addition by competitive PKA binding assay relative to control; assay type: functional, cell-based; details: filed as agonist
[3] = target: T1, Delta-type opioid receptor; assay: Agonist activity at DOR (unknown origin) expressed in HEK293-A cells assessed as inhibition of forskolin-induced cAMP accumulation preincubated for 30 mins in presence of 3-isobutyl-1-methylxanthine followed by forskolin and compound addition by competitive PKA binding assay; assay type: functional, cell-based
[4] = test system: Mus musculus; assay: Antinociceptive activity against Kunming mouse model of thermal-induced nociception assessed as maximum possible effect at 90.1 nmol/kg, po measured after 20 min by tail flick test relative to control; assay type: functional
[5] = test system: Mus musculus; assay: Potency index, ratio of test compound ED50 to DN-9 ED50 for antinociceptive activity against Kunming mouse model of thermal-induced nociception assessed as peripheral analgesia administered subcutaneously by tail-flick test; assay type: functional
[6] = test system: Mus musculus; assay: Antinociceptive activity against Kunming mouse model of thermal-induced nociception assessed as peripheral analgesia administered subcutaneously by tail-flick test; assay type: functional; details: sc
[7] = target: T2, Neuropeptide FF receptor 1 (Homo sapiens, UniProt Q9GZQ6); assay: as §1, with “NPFF1R” for “DOR”, “accumulation by measuring maximal efficacy” for “accumulation”; assay type: functional, cell-based; details: filed as agonist
[8] = test system: Mus musculus; assay: Antinociceptive activity against Kunming mouse model of thermal-induced nociception assessed as maximum possible effect at 90.1 nmol/kg, po measured after 30 min by tail flick test relative to control; assay type: functional; details: 0.5 h
[9] = target: Kappa-type opioid receptor (Homo sapiens, UniProt P41145); assay type: functional, cell-based, HEK293-A
[10] = target: T3, Neuropeptide FF receptor 2 (Homo sapiens, UniProt Q9Y5X5); assay: Agonist activity at NPFF2R (unknown origin) expressed in HEK293-A cells assessed as inhibition of forskolin-induced cAMP accumulation preincubated for 30 mins in presence of 3-isobutyl-1-methylxanthine followed by forskolin and compound addition by competitive PKA binding assay; assay type: functional, cell-based
[11] = target: Mu-type opioid receptor (Homo sapiens, UniProt P35372)
[12] = Metabolic stability in mouse plasma assessed as degradation half life at 0.01 M measured up to 360 mins; assay type: ADME, cell-free
[13] = target: T2, Neuropeptide FF receptor 1; assay: Agonist activity at NPFF1R (unknown origin) expressed in HEK293-A cells assessed as inhibition of forskolin-induced cAMP accumulation preincubated for 30 mins in presence of 3-isobutyl-1-methylxanthine followed by forskolin and compound addition by competitive PKA binding assay; assay type: functional, cell-based
[14] = test system: Mus musculus; assay: Antinociceptive activity against Kunming mouse model of thermal-induced nociception assessed as duration of analgesic effect administered subcutaneously by tail-flick test; assay type: functional
[15] = target: T3, Neuropeptide FF receptor 2; assay: as §1, with “NPFF2R” for “DOR”, “accumulation by measuring maximal efficacy” for “accumulation”; assay type: functional, cell-based; details: filed as agonist
[16] = test system: Mus musculus; assay: Antinociceptive activity in Kunming mouse assessed as analgesic tolerance administered subcutaneously once daily for 8 days by tail flick test; assay type: functional, organism-based; details: time 8.0 day

T3 sequence (Q9Y5X5 whole entry): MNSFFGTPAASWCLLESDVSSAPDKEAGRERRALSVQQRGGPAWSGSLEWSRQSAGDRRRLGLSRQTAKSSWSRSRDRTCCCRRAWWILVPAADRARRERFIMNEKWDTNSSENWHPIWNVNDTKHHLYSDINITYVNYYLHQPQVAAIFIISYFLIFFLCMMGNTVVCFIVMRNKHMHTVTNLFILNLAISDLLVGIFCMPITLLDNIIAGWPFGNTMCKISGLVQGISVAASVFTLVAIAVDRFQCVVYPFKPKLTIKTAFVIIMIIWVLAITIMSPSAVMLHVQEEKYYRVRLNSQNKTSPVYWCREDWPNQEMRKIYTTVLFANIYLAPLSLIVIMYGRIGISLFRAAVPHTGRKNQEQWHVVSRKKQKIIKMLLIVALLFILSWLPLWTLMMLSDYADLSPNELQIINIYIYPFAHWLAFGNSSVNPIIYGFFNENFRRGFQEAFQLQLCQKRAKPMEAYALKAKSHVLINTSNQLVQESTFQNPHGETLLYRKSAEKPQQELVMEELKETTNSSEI
T2 sequence (Q9GZQ6 whole entry): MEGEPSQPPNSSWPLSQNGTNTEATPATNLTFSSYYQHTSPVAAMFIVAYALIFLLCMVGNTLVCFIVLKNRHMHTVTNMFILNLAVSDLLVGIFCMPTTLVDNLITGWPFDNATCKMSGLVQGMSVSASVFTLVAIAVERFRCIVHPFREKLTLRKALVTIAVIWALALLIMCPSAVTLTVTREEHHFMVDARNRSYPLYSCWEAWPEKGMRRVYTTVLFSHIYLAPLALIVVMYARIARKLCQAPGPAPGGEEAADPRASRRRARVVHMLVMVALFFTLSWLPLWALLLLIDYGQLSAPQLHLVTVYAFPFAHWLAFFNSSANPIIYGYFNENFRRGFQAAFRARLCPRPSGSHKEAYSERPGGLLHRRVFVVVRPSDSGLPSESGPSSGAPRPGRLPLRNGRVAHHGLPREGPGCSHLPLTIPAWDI
T1 sequence (P41143 whole entry): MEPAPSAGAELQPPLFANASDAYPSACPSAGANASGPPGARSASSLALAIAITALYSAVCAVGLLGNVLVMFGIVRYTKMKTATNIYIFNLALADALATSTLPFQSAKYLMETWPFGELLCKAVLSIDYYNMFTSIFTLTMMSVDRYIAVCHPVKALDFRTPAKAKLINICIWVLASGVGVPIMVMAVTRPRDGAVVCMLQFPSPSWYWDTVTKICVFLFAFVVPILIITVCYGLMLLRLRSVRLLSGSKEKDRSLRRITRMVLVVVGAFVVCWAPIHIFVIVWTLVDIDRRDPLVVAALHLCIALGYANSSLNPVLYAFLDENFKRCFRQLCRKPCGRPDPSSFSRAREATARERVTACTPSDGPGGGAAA
Sequence of Mu-type opioid receptor (P35372 whole entry): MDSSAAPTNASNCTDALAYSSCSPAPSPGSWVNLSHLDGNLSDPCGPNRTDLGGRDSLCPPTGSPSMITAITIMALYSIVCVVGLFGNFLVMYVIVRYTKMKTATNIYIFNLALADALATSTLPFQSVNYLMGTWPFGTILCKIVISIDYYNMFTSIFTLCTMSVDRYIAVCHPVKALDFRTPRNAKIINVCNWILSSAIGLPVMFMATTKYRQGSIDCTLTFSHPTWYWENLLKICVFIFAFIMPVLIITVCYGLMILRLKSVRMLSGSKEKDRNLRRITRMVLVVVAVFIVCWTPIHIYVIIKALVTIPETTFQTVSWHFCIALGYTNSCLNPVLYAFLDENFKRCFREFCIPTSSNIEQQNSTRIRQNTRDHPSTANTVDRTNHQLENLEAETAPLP
Sequence of Kappa-type opioid receptor (P41145 whole entry): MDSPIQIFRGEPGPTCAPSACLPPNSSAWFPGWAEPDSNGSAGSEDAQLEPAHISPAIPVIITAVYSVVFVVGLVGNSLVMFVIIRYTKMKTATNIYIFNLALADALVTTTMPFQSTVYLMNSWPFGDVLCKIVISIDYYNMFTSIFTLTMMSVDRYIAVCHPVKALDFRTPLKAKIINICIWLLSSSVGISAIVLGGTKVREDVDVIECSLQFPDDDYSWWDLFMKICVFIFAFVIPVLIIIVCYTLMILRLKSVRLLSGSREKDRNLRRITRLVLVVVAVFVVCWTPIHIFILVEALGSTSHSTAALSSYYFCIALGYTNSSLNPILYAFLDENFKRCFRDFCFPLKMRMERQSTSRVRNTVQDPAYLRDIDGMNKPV

Structure (SMILES): CN1C(=O)CNC(=O)[C@H](NC(=O)[C@@H](N)Cc2ccc(O)cc2)CNC(=O)C[C@@H](C(=O)N2CCC[C@H]2C(=O)N[C@@H](CCC(N)=O)C(=O)N[C@@H](CCCNC(=N)N)C(=O)N[C@@H](Cc2ccccc2)C(N)=O)NC(=O)[C@@H]1Cc1ccccc1 (H-Y[dDap]G[NMeF]DPQRF-NH2; lactam 2-5)
- MPE [1]: 80.8%
- Emax [2]: 48%
- EC50 [3]: 0.374 µM
- MPE [4]: 93.2%
- Ratio ED50 [5]: 16
- ED50 [6]: 0.0135 µmol/kg
- Emax [7]: 47.5%
- MPE [8]: 97.5%
- EC50 [9]: 0.136 µM
- EC50 ([10]; read-out: EC50): 0.349 µM
- EC50 ([10]; read-out: pEC50 (converted)): 0.355 µM
- EC50 [11]: 0.238 µM
- half-life at 10000 µM [12]: 1.09 h
- EC50 [13]: 0.0901 µM
- Tlast [14]: 240 min
- Emax [15]: 63.9%
- Activity [16]: inactive
